Values quoted from earlier work in US5211943A, “Pharmaceutical preparation for administration by percutaneous absorption and a method for their manufacture” (Chugai Seiyaku Kabushili Kaisha, priority 1986, dated 1993).

Tests used:
[1] = test system: coronary vessels; details: Japanese Patent Publication 58-17463
[2] = oral; rapid increase of blood level
[3] = high temperature or high humidity, or in solution; Iyakuhin Kenkyu vol. 14, 1983

stability [3]: relatively unstable
Structure (SMILES): O=C(NCCO[N+](=O)[O-])c1cccnc1 [Nicorandil, N-(2-hydroxyethyl)nicotinamide nitrate]
effect on coronary vessels, coronary veins and heart [1]: acts to dilate the coronary vessels and to inhibit contractions of the coronary veins, without much effect on the blood flow through the heart or on heart function
side effects when given orally [2]: orthostatic hypotension and headache
